Earlier results, collected in patent US6383513B1, “Compositions comprising cannabinoids” (West Pharmaceutical Services Drug Delivery & Clinical …, priority 1997, dated 2002).

Columns and labels:
[1] = not given; remark: listed apart in the source

CCCCCc1cc(O)c2c(c1)OC(C)(C)[C@@H]1CCC(C)=C[C@@H]21 [Dronabinol, delta-9-tetrahydrocannabinol]
appetite stimulant effect may continue (after administration): ≥ 24 h
duration of action for psychoactive effects (after oral administration): 4 to 6 h
onset of action (after oral administration): 0.5 to 1 h
peak effect (after oral administration): 2 to 4 h
absorbed ([1]; after single oral doses): 90-95%
administered dose that reaches the systemic circulation ([1]; oral, first pass hepatic metabolism and high lipid solubility): 10-20%
